The values below come from paper PMC9212491 (Antiviral Research, 2022).

Broadly, the EC50 is the concentration at which the effect is half-maximal. As usually defined, the Kd is a measure of binding affinity in units of concentration. Lower therefore signals tighter binding. One may read the CC50 as the concentration at which the toxic effect on the cells reaches its halfway point. Low readings indicate greater toxicity to the cells, high ones lower toxicity to the cells.

Molecules are shown by their SMILES.

For one data set, the system named is rSARS-CoV-2/Nluc. Description: microbe, parasite or virus in culture. In kind it is cell-based, SARS-CoV-2. Conditions: for EC50: Severe acute respiratory syndrome coronavirus 2, Calu-3, read-out: EC50, SARS-CoV-2 infection, Calu-3 cells.
The next data set concerns JAK2. Conditions: ref Stebbing et al.,2021; Klaeger et al.,2017; cited from earlier work.
In another data set the test system is TYK2. Conditions: ref Stebbing et al.,2021; Klaeger et al.,2017; cited from earlier work.
A further data set relates to STK10. Conditions: ref Asquith et al., 2019a, 2019b; Davis et al.,2011; cited from earlier work.
The next data set relates to YSK4. The settings on record: ref Asquith et al., 2019a, 2019b; Davis et al.,2011; cited from earlier work.
Another data set concerns SLK. Conditions: ref Asquith et al., 2019a, 2019b; Davis et al.,2011; cited from earlier work.
The subject of the next data set is EGFR. Conditions: ref Asquith et al., 2019a, 2019b; Davis et al.,2011; cited from earlier work.
In a further data set the target is BIKE (Homo sapiens, UniProt Q9NSY1). As to the kind of experiment: In vitro binding, dissociation constant.
BIKE, sequence (Q9NSY1 whole entry): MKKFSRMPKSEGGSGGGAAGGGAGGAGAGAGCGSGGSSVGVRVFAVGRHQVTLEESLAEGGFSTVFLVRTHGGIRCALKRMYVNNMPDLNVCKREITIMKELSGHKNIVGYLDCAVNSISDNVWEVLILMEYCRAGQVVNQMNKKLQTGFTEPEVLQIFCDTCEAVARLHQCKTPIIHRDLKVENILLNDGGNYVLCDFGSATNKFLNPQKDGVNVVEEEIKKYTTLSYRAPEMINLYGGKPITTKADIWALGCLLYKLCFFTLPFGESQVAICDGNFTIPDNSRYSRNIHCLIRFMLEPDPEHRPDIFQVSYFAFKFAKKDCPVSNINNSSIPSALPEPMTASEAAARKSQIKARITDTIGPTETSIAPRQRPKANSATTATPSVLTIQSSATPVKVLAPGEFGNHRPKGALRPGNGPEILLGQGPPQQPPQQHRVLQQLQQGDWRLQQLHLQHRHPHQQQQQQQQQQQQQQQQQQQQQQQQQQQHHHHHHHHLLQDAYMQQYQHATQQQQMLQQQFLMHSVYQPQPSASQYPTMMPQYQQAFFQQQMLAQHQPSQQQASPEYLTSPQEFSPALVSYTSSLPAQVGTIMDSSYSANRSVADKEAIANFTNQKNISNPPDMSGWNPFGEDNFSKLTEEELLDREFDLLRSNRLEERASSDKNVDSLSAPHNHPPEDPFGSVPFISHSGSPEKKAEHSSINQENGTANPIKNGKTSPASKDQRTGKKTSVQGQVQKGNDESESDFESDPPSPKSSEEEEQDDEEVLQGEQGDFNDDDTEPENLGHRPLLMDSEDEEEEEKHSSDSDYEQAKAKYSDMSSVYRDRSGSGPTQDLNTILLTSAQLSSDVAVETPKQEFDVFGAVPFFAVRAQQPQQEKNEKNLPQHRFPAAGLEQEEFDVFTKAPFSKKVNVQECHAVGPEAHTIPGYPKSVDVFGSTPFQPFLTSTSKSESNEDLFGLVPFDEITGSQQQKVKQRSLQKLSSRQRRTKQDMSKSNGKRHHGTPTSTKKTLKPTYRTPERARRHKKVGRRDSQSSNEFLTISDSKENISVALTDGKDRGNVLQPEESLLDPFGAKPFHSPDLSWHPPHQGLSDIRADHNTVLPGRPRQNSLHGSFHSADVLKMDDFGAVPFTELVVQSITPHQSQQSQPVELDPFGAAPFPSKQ
A short description of data set [1]: alamarBlue viability, infected Vero E6 cells. In kind it is cell-based. The settings on record: African green monkey, 24 hpi. For orientation: Alamar Blue is a resazurin reagent that responds to reducing activity.
The nature of data set [2]: alamarBlue viability, infected Calu-3 cells. Conditions: human. In kind it is cell-based.
The target in another data set is AAK1 (Homo sapiens, UniProt Q2M2I8). As to the kind of experiment: In vitro binding, dissociation constant.
AAK1, sequence (Q2M2I8 whole entry): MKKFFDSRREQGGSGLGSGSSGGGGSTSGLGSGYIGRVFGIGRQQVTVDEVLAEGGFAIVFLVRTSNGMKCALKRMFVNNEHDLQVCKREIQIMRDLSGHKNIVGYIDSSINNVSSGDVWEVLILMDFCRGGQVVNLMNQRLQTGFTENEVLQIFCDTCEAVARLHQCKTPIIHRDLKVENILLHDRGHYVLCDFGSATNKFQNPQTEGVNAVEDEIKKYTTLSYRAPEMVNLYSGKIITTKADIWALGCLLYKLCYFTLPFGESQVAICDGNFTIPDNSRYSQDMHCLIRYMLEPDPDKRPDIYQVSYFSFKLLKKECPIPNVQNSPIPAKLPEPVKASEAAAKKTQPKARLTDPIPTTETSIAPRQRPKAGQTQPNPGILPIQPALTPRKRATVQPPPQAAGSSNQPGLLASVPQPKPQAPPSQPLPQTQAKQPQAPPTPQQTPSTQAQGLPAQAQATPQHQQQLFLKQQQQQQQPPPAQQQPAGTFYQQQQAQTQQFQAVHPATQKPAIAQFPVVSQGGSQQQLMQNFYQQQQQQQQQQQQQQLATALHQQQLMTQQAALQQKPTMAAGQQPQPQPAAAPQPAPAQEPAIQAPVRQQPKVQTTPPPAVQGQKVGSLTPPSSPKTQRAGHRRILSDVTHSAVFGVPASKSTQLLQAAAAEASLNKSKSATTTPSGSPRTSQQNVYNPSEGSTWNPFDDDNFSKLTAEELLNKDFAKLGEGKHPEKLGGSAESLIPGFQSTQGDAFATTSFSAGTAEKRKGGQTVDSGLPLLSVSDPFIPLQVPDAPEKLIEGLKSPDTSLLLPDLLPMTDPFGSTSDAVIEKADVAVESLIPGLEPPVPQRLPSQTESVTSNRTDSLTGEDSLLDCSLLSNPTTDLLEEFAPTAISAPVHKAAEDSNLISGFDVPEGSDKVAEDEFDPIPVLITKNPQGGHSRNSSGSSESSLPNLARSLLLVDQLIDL
A further data set has as its system ADCK3. Conditions: ref Asquith et al., 2019a, 2019b; cited from earlier work.
A further data set concerns RIPK2. Conditions: ref Asquith et al., 2019a, 2019b; cited from earlier work.
The test system of the next data set is NLK. Conditions: ref Asquith et al., 2019a, 2019b; cited from earlier work.
Another data set deals with PDGFRβ. Conditions: ref Davis et al.,2011; cited from earlier work.

Turning to `CCS(=O)(=O)N1CC(CC#N)(n2cc(-c3ncnc4[nH]ccc34)cn2)C1` [Baricitinib, baricitinib], the “antiviral activity in Calu-3 cells” value with rSARS-CoV-2/Nluc is listed as “largely no antiviral activity”. In the data set on JAK2, the “JAK2 (Other targets, measure not stated)” value is listed as 5.7 nM. Besides, the “TYK2 (Other targets, measure not stated)” value with TYK2 is given as 53 nM.

Regarding `C#Cc1cccc(Nc2ncnc3cc(OCCOC)c(OCCOC)cc23)c1` [Erlotinib, erlotinib], the “STK10 (Other targets, measure not stated)” value in the data set with STK10 is recorded as 19 nM. Also, the “YSK4 (Other targets, measure not stated)” value in the data set with YSK4 is 25 nM. Besides, the “SLK (Other targets, measure not stated)” value with SLK is given as 26 nM. Further, the EC50 in the data set on rSARS-CoV-2/Nluc is greater than 20 µM. In the data set with EGFR, the “ErbB1 (Other targets, measure not stated)” value is given as 0.7 nM.

For the molecule `C=CC(=O)Nc1cccc(-c2snc3cc(-c4ccc(N)c(OC)c4)cnc23)c1` [RMC-242, N-(3-(6-(4-amino-3-methoxyphenyl)isothiazolo [4,3-b]pyridin-3-yl)phenyl) acrylamide], the Kd on BIKE is greater than 15 µM; on AAK1 it was 4.1 µM. Further, in the data set on rSARS-CoV-2/Nluc, the EC50 is 1.6 µM. For the same molecule, the cytotoxic concentration (CC50) at 24 h post infection was 16 µM in [1] and greater than 20 µM in data set [2].

For `COc1cc(Nc2ccnc3ccc(Br)cc23)cc(OC)c1OC` [SGC-GAK-1], the “ADCK3 (Other targets, measure not stated)” value in the data set on ADCK3 is on record as 190 nM. The EC50 with rSARS-CoV-2/Nluc is 2.3 µM. In addition, the CC50 at 24 h post infection in [1] and in data set [2] was greater than 20 µM each time. Moreover, the “RIPK2 (Other targets, measure not stated)” value in the data set with RIPK2 is 110 nM. The “NLK (Other targets, measure not stated)” value with NLK is reported as 520 nM.

`CCN(CC)CCNC(=O)c1c(C)[nH]c(/C=C2\C(=O)Nc3ccc(F)cc32)c1C` [Sunitinib, sunitinib]: the “PDGFRβ (Other targets, measure not stated)” value with PDGFRβ is given as 2 nM. The EC50 with rSARS-CoV-2/Nluc worked out at 2.9 µM. Further, the figures for the CC50 at 24 h post infection in [1] and in data set [2] were 12.2 µM and greater than 20 µM, respectively.
